Data as given in ChEMBL document CHEMBL1155053, “Discovery of new Gram-negative antivirulence drugs: structure and properties of novel E. coli WaaC inhibitors” (Bioorg Med Chem Lett, 2008).

Test: Inhibition of Escherichia coli heptosyltransferase Waac

Row | SMILES | IC50 [µM]
1 | CC1=NN(c2ccc(C(=O)O)cc2)C(=O)/C1=C\c1ccc(-c2ccccc2)o1 | 55
2 | CC1=NN(c2cccc(C)c2)C(=O)/C1=C\c1ccc(-c2cccc(C(=O)O)c2)o1 (mixture of isomers) | > 100
3 | CC1=NN(c2ccc(C(=O)O)cc2)C(=O)/C1=C\c1ccc(-c2ccc(C(=O)O)cc2)o1 (mixture of isomers) | 51
4 | CC1=NN(c2ccc(C(=O)O)cc2)C(=O)/C1=C\c1ccc(-c2cccc(C(N)=O)c2)o1 (mixture of isomers) | 18
5 | CC1=NN(c2cccc(C(=O)O)c2)C(=O)/C1=C\c1ccc(-c2ccc(S(N)(=O)=O)cc2)o1 (mixture of isomers) | > 100
6 | COC(=O)c1cccc(-c2ccc(/C=C3\C(=O)N(c4cccc(C(=O)O)c4)N=C3C)o2)c1 (mixture of isomers) | 49
7 | COC(=O)c1cccc(N2N=C(C)/C(=C/c3ccc(-c4cccc(C(=O)O)c4)o3)C2=O)c1 (mixture of isomers) | > 100

Further lines, results first:

Row | IC50 [µM] | SMILES
8 | 3 | CC1=NN(c2cccc(C(=O)O)c2)C(=O)/C1=C\c1ccc(-c2ccc(C(=O)O)cc2)o1
9 | 3.1 | CC1=NN(c2ccc(C(=O)O)cc2)C(=O)/C1=C\c1ccc(-c2ccc(Cl)c(C(=O)O)c2)o1
10 | 31 | CC1=NN(c2cccc(C(=O)O)c2)C(=O)/C1=C\c1ccc(-c2ccc(C(=O)O)c(C)c2)o1
11 | 2 | CC1=NN(c2cccc(C(=O)O)c2)C(=O)/C1=C\c1ccc(-c2cccc(C(=O)O)c2)o1 (mixture of isomers)
12 | 15 | CC(=O)c1cccc(-c2ccc(/C=C3\C(=O)N(c4cccc(C(=O)O)c4)N=C3C)o2)c1 (mixture of isomers)
13 | > 100 | CC1=NN(c2ccccc2)C(=O)/C1=C\c1ccc(-c2ccc(Cl)c(C(=O)O)c2)o1 (mixture of isomers)
14 | 1 | CC1=NN(c2cccc(C(=O)O)c2)C(=O)/C1=C\c1ccc(-c2ccc(Cl)c(C(=O)O)c2)o1 (mixture of isomers)
